These results are taken from publication PMC3988029, “A Trisubstituted Benzimidazole Cell Division Inhibitor with Efficacy against Mycobacterium tuberculosis” (PLoS ONE, 2014).

The structures appear in SMILES notation. Values after ≈ are worked out from the molar mass of the structure shown.

The test system of one test is M. tuberculosis. Format: cell-based. To be noted: for Enhancement of activity against M. tuberculosis in the presence of the partner drug: checkerboard, SB-P17G-A20 with rifampicin.
In test [1] the test system is M. tuberculosis clinical isolates. Description: microbe, parasite or virus in culture. Format: cell-based. To be noted: Mycobacterium tuberculosis, read-out: MIC against different clinical strains of M. tuberculosis.
The next test concerns M. tuberculosis H37Rv. Format: cell-based, Mycobacterium tuberculosis. The conditions noted are these: 2×10^9 cells plated on 1.6 µg/mL, 10 times MIC.

In the case of `CO[C@H]1/C=C/O[C@@]2(C)Oc3c(C)c(O)c4c(O)c(c(/C=N/N5CCN(C)CC5)c(O)c4c3C2=O)NC(=O)/C(C)=C\C=C\[C@H](C)[C@H](O)[C@@H](C)[C@@H](O)[C@@H](C)[C@H](OC(C)=O)[C@@H]1C` [rifampicin, reference compound], the “Enhancement of activity against M. tuberculosis in the presence of the partner drug” value with M. tuberculosis came to 2 fold.

Turning to `CN(C)c1cc2[nH]c(C3CCCCC3)nc2cc1NC(=O)c1ccc(OC(F)(F)F)cc1` [SB-P17G-A20], in test [1], the MIC was 0.16 µg/mL (≈ 0.358 µM). Moreover, the “Enhancement of activity against M. tuberculosis in the presence of the partner drug” value in the test on M. tuberculosis is reported as 2–4 fold. The ΣFIC in the test with M. tuberculosis (rifampicin in combination with SB-P17G-A20) worked out at 0.75. Moreover, in the test on M. tuberculosis H37Rv, the Spontaneous resistant mutants result is recorded as “no single resistant colony was obtained”.
